Reference: PMC10508484, “Development and application of a PBPK modeling strategy to support antimalarial drug development” (CPT: Pharmacometrics & Systems Pharmacology, 2023)
Where two headings read alike, the source gives them in different places.

Experiments:
[1] = In vitro flags for victim and perpetrator properties conferring DDI liability; type: in vitro ADME, human; settings: in vitro flag, mainly based on in vitro determinations
[2] = clinically observed oral (in vivo) clearance; pyronaridine: blood; ref amodiaquine Winstanley et al., 1987 9; DEAQ Akande et al., 2015 8, Scarsi et al., 2014 35, Tarning et al., 2012 36, Orrell et al., 2008 37; DHA Na-Bangchang et al., 2004 42; lumefantrine Lefevre et al., 2002 52, Hoglund et al., 2015 53; mefloquine Charles et al., 2007 56; proguanil Jeppesen et al., 1997 34; pyronaridine Jittama; cited from earlier work
[3] = ref McCarthy et al., 2020 47, cited from earlier work; for AUC Obs: 0-inf
in vitro = settings: human, Caco-2
[4] = Fraction unbound in plasma (fu), main binding protein; settings: PBPK input; unpublished (in-house) data
CYP3A4 = CYP3A4 (Homo sapiens, UniProt P08684)
CYP3A4, sequence (P08684 whole entry): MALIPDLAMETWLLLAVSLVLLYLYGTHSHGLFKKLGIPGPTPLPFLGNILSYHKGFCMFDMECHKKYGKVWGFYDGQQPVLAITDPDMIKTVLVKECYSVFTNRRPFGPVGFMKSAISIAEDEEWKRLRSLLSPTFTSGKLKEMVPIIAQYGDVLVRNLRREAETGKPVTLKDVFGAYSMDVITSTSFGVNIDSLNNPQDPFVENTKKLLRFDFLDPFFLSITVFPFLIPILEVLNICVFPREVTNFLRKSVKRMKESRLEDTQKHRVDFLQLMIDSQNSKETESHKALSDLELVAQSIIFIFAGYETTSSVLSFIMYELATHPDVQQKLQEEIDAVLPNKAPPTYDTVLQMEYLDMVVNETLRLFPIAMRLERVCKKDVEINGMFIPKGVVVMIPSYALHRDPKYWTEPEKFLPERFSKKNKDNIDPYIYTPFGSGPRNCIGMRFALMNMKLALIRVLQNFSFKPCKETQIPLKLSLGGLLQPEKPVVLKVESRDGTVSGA
Description: (§1) In nearly all cases the fraction of systemic elimination metabolised by a given enzyme (fm) determined in vitro was unavailable in the literature.

[5] = Blood to plasma ratio (B:P); settings: PBPK input; unpublished (in-house) data
[6] = In vivo clearance (CL IV, CL PO, CL renal, fe); settings: rat, after IV dose
UGT1A1 = biological target: T1, UGT1A1 (Homo sapiens, UniProt P22309); assay: Metabolism by UGT1A1; type: in vitro ADME
T1 sequence (P22309 26-533): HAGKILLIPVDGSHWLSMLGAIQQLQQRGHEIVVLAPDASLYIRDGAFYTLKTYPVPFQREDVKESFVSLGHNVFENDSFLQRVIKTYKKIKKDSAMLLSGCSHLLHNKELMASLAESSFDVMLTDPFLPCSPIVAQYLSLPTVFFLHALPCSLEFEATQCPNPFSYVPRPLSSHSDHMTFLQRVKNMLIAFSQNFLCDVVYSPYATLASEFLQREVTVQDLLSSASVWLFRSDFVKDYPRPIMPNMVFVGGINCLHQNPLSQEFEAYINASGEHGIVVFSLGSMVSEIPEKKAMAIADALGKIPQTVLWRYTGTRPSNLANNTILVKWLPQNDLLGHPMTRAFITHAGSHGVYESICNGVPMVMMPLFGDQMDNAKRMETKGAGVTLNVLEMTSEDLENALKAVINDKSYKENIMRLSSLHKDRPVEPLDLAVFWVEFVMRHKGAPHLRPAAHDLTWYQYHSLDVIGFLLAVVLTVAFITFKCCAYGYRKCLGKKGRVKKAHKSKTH
Description: as §1

## CS(=O)(=O)c1ccc(-c2cnc(N)c(-c3ccc(C(F)(F)F)nc3)c2)cc1 [MMV048]
[1]
  Risk as a perpetrator: No risk has been identified as a perpetrator
[2]
  CL PO: 0.82 L/h
[3]; 40 mg SD
  AUC Obs: 30320 ng·h/mL
  Cmax Obs: 272.7 ng/mL
[3]; 80 mg SD
  AUC Obs: 82680 ng·h/mL
  Cmax Obs: 561.0 ng/mL
[3]; 120 mg SD
  AUC Obs: 137800 ng·h/mL
  Cmax Obs: 1094.0 ng/mL
In vitro
  Papp A→B: 44 ×10⁻⁶ cm/s
[4]
  fu: 0.145
CYP3A4
  fmCYP3A4: 10%
CYP3A4; microsomes
  CLint CYP3A4: 0.13 µL/min/pmol
[5]
  B:P: 0.9
[6]
  dose recovered in urine: 0.2 % of dose
UGT1A1; Derived from CL PO using retrograde calculations
  CLint UGT1A1: 1.13 µL/min/pmol
UGT1A1; allocation of clearance, based on in vitro data
  fm UGT1A1: 90%
UGT1A1; fraction metabolized
  fm by UGT1A1: 0.9
